Data published in patent US20040009464A1, “Methods for identifying compounds for inhibition of neoplastic lesions, and pharmacetical compositions containing such compounds” (priority 1998, published 2004).
Like-named read-outs stand apart in the source and are kept apart here.

Key:
[1] = target: T1, cGMP binding sites of GST-cGB-PDE5 fusion protein (Homo sapiens, UniProt O76074); experiment: cGMP binding assay with GST-cGB-PDE5 fusion protein
T1 construct: made in house; host or cells: E. coli BL21 (DE3)

[2] = test system: SW-480 colon adenocarcinoma cells; experiment: Apoptosis fold induction protocol (DNA fragmentation ELISA); format: cell-based, human; parameters: key to the marks not given beside the values; conditions: qualitative activity profile
[3] = target: T2, purified cyclooxygenase (Type 1) from ram seminal vesicles (Ovis aries, UniProt P05979); experiment: COX inhibition assay with purified cyclooxygenase; parameters: COX Inhibition: key to the marks not given beside the values; conditions: for COX-I inhibition: FIG. 5
T2 sequence (P05979 25-600): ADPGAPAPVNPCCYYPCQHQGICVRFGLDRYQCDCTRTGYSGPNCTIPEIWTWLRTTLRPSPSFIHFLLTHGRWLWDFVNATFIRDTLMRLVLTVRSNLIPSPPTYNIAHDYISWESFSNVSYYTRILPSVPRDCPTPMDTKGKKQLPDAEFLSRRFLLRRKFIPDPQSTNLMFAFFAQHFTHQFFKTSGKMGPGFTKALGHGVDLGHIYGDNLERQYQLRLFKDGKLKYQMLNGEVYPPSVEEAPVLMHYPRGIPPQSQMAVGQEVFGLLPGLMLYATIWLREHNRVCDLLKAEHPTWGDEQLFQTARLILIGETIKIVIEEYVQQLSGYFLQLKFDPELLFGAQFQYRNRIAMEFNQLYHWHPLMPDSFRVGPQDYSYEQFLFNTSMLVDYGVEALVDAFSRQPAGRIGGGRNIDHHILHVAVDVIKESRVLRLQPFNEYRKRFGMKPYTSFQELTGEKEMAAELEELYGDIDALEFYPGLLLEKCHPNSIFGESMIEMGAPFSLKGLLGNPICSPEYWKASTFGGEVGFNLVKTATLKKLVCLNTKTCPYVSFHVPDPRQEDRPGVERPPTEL

[4] = target: T3, PDE peak A (PDE5) from SW480 (Homo sapiens, UniProt O76074); experiment: cGMP hydrolysis by PDE peak A (PDE5) isolated from SW480 cells; format: biochemical
T3 construct: The novel PDE activity was first found in SW480 colon cancer cell lines; endogenous in cells; host or cells: SW480 colon cancer cells; DEAE-Trisacryl M fraction (peak A)

[5] = test system: novel cGMP-specific PDE peak B from SW480; experiment: cGMP hydrolysis by novel cGMP-specific PDE peak B (Section IA) from SW480 cells; format: biochemical, human; conditions: for Ratio (IC50 Peak A/Peak B): cGMP hydrolysis
HT-29 cells = experiment: Cyclic nucleotide (cGMP, cAMP) levels in HT-29 cells by radioimmunoassay; format: cell-based, human; conditions: for effect on cAMP levels: HT-29 cells
[6] = test system: cGMP PDE purified from human colon HT-29 cultured tumor cells; experiment: cGMP PDE inhibition assay; format: biochemical; parameters: PDE Inhibition: key to the marks not given beside the values
[7] = test system: PDE4 purified from human colon HT-29 cultured tumor cells; experiment: PDE4 inhibition assay; format: biochemical; conditions: PDE4 from HT-29 cells
Experimental: (Thompson, W. J., Teraski, W. L., Epstein, P. M., Strada, S. J., Advances in Cyclic Nucleotide Research, 10:69-92, 1979, which is incorporated herein by reference). […] The mixture is incubated at 30° C. for 10 minutes with isolated PDE of this invention. Reactions are terminated, for example, by boiling the reaction mixture for 75 seconds. After cooling on ice, 100 μl of 0.5 mg/mL snake venom (O. Hannah venom available from Sigma) is added and incubated for 10 minutes at 30° C. This reaction is then terminated by the addition of an alcohol, e.g. 1 mL of 100% methanol. Assay samples are applied to 1 mL Dowex 1-X8 column; and washed with 1 mL of 100% methanol. The amount of radioactivity in the breakthrough and the wash from the column is combined and measured with a scintillation counter. The degree of phosphodiesterase inhibition is determined by calculating the amount of radioactivity in drug-treated reactions and comparing against a control sample (a reaction mixture lacking the tested compound but with drug solvent).

HCT116, Colon = experiment: Growth inhibition, SRB assay, HCT116; format: cell-based; conditions: Homo sapiens, HCT-116
Source text: (§1) A compound's ability to inhibit tumor cell growth can be measured using the HT-29 human colon carcinoma cell line obtained from ATCC. HT-29 cells have previously been characterized as a relevant colon tumor cell culture model (Fogh, J., and Trempe, G. In. Human Tumor Cells in Vitro, J. Fogh (eds.), Plenum Press, New York, pp. 115-159, 1975). HT-29 cells are maintained in RPMI media supplemented with 5% fetal bovine calf serum (Gemini Bioproducts, Inc., Carlsbad, Calif.) and 2 mm glutamine, and 1% antibiotic-antimycotic in a humidified atmosphere of 95% air and 5% CO2 at 37° C. Briefly, HT-29 cells are plated at a density of 500 cells/well in 96 well microtiter plates and incubated for 24 hours at 37° C. prior to the addition of compound. […] After six days in culture, the cells are fixed by the addition of cold trichloroacetic acid to a final concentration of 10% and protein levels are measured using the sulforhodamine B (SRB) colorimetric protein stain assay as previously described by Skehan, P., Storeng, R., Scudiero, D., Monks, A., McMahon, J., Vistica, D., Warren, J. T., Bokesch, H., Kenney, S., and Boyd, M. R., “New Colorimetric Assay For Anticancer-Drug Screening,” J. Natl Cancer Inst. […]
(§2) To show the effectiveness of this screening method on various forms of neoplasia, compounds were tested on numerous cell lines. […] The IC50 values were determined by the SRB assay. […]

A-427, Lung = experiment: Growth inhibition, SRB assay, A-427; format: cell-based; conditions: Homo sapiens
Source text: as §1, §2

[8] = test system: premalignant lesions in mouse mammary gland organ culture; experiment: Mammary gland organ culture model; format: cell-based; conditions: FIG. 17
Source text: Test compounds identified by the above methods can be tested for antineoplastic activity by their ability to inhibit the incidence of pre-neoplastic lesions in a mammary gland organ culture system. This mouse mammary gland organ culture technique has been successfully used by other investigators to study the effects of known antineoplastic agents such as certain NSAIDs, retinoids, tamoxifen, selenium, and certain natural products, and is useful for validation of the screening method of the present invention.
For example, female BALB/c mice can be treated with a combination of estradiol and progesterone daily, in order to prime the glands to be responsive to hormones in vitro. The animals are sacrificed, and thoracic mammary glands are excised aseptically and incubated for ten days in growth media supplemented with insulin, prolactin, hydrocortisone, and aldosterone. DMBA (7,12-dimethylbenz(a)anthracene) is added to medium to induce the formation of premalignant lesions Fully developed glands are then deprived of prolactin, hydrocortisone, and aldosterone, resulting in the regression of the glands but not the pre-malignant lesions.
The test compound is dissolved in DMSO and added to the culture media for the duration of the culture period. At the end of the culture period, the glands are fixed in 10% formalin, stained with alum camine, and mounted on glass slides. The incidence of forming mammary lesions is the ratio of the glands with mammary lesions to […]. The incidence of mammary lesions in test compound treated glands is compared with that of the untreated glands.
The extent of the area occupied by the mammary lesions can be quantitated by projecting an image of the gland onto a digitation pad. The area covered by the gland is traced on the pad and considered as 100% of the area. The space covered by each of the non-regressed structures is also outlined on the digitization pad and quantitated by the computer.
Mammary gland organ culture experiment were performed as previously described (Mehta and Moon, Cancer Research, 46: 5832-5835, 1986). […]

Compound: CCCCOC1C2OP(=O)(O)OCC2OC1n1cnc2c(N)ncnc21 (centres unmarked) [2′-O-butyl-cAMP]
- competition with cGMP (2 μM) in binding of GST-cGB-PDE5 ([1]; FIG. 24): did not compete

Compound: CCCCOC1C2OP(=O)(O)OCC2OC1n1cnc2c(=O)[nH]c(N)nc21 (centres unmarked) [2′-O-butyl-cGMP]
- competition with cGMP (2 μM) in binding of GST-cGB-PDE5 ([1]; FIG. 24): did not compete

Compound: Nc1nc2c(nc(Br)n2[C@@H]2O[C@@H]3COP(=O)(O)O[C@H]3[C@H]2O)c(=O)[nH]1 [Compound 8-bromo-cGMP, 8-bromo-cGMP]
- competition with cGMP (2 μM) in binding of GST-cGB-PDE5 ([1]; FIG. 24): can partially compete

Compound: COc1cc(C=C2C(C)=C(CC(=O)O)c3cc(F)ccc32)cc(OC)c1OC [Compound B, (Z)-5-Fluoro-2-methyl-1-(3,4,5-trimethoxybenzylidene)-3-acetic acid]
- Apoptosis [2]: +++
- competition with cGMP (2 μM) in binding of GST-cGB-PDE5 ([1]; FIG. 24): None of the PDE5 inhibitors showed any competition
- COX-I inhibition [3]: neither test compound B and E significantly inhibit COX-I

Compound: O=C([O-])C1CCN(c2nc(NCc3ccc4c(c3)OCO4)c3cc(Cl)ccc3n2)CC1.[Na+] [Compound E4021]
- competition with cGMP (2 μM) in binding of GST-cGB-PDE5 ([1]; FIG. 24): None of the PDE5 inhibitors showed any competition

Compound: COc1cc(/C=C2/C(C)=C(CC(=O)NCc3ccccc3)c3cc(F)ccc32)cc(OC)c1OC [Compound E, (Z)-5-Fluoro-2-methyl-1-(3,4,5-trimethoxybenzylidene)-3-indenylacetamide, N-benzyl]
- competitive (with cGMP) binding to PDE5 peak A [4]: does competitively (with cGMP) bind to PDE 5
- competitive (with cGMP) binding to PDE peak B [5]: competitively (with cGMP) binds to PDE peak B
- Ratio (IC50 Peak A/Peak B) [5]: 1.0
- Apoptosis [2]: ++++
- competition with cGMP (2 μM) in binding of GST-cGB-PDE5 ([1]; FIG. 24): None of the PDE5 inhibitors showed any competition
- COX-I inhibition [3]: neither test compound B and E significantly inhibit COX-I

Compound: Nc1ncnc2c1ncn2[C@@H]1O[C@@H]2COP(=O)(O)O[C@H]2[C@H]1O [Cyclic AMP]
- competition with cGMP (2 μM) in binding of GST-cGB-PDE5 [1]: did not compete

Compound: O=c1[nH]cnc2c1ncn2[C@@H]1O[C@@H]2COP(=O)(O)O[C@H]2[C@H]1O [Cyclic IMP]
- competition with cGMP (2 μM) in binding of GST-cGB-PDE5 ([1]; FIG. 24): can partially compete

Compound: CC1(C)C(=O)Nc2ccc(C3=NNC(=O)CC3)cc21 [Indolidan]
- Ratio (IC50 Peak A/Peak B) [5]: <0.31

Compound: COc1ccc(C2CNC(=O)C2)cc1OC1CCCC1 (centres unmarked) [Rolipram]
- effect on cAMP levels (HT-29 cells): increased cAMP

Compound: CCCc1nn(C)c2c(=O)[nH]c(-c3cc(S(=O)(=O)N4CCN(C)CC4)ccc3OCC)nc12 [Sildenafil]
- inhibition of activity of peak A [4]: inhibited activity of peak A

Compound: CSc1ccc(/C=C2/C(C)=C(CC(=O)O)c3cc(F)ccc32)cc1 [Sulindac sulfide]
- cGMP PDE inhibitory activity, % Inhibition at 10 μM ([6]; 10 μM): 97%
- PDE Inhibition ([6]; qualitative activity profile): +++
- IC50 ([6]; read-out: IC50 for inhibition of cGMP PDE, cGMP PDE from HT-29 cells): 17 µM
- IC50 [7]: 41 µM
- effect on cAMP levels (HT-29 cells): unaffected
- EC50 (HT-29 cells; Homo sapiens, 0.5 h, read-out: EC50 for increase of cGMP levels, HT-29 cells treated 30 minutes): 7.3 µM
- Apoptosis [2]: +++
- IC50 (HCT116, Colon): 45 µM
- IC50 (A-427, Lung): 90 µM
- inhibition of premalignant lesions in mammary gland organ culture [8]: inactive
- competition with cGMP (2 μM) in binding of GST-cGB-PDE5 ([1]; FIG. 24): None of the PDE5 inhibitors showed any competition
- COX Inhibition ([3]; qualitative activity profile): ++++
- inhibition at 100 µM ([3]; read-out: Cyclooxygenase inhibitory activity, % Inhibition at 100 μM): 97%

Compound: CCCOc1ccccc1-c1nc2nn[nH]c2c(=O)[nH]1 [Zaprinast]
- competition with cGMP (2 μM) in binding of GST-cGB-PDE5 ([1]; FIG. 24): None of the PDE5 inhibitors showed any competition

Compound: Nc1ccn([C@@H]2O[C@@H]3COP(=O)(O)O[C@H]3[C@H]2O)c(=O)n1 [cCMP]
- competition with cGMP (2 μM) in binding of GST-cGB-PDE5 ([1]; FIG. 24): did not compete

Compound: O=c1ccn([C@@H]2O[C@@H]3COP(=O)(O)O[C@H]3[C@H]2O)c(=O)[nH]1 [cUMP]
- competition with cGMP (2 μM) in binding of GST-cGB-PDE5 ([1]; FIG. 24): did not compete

Compound: CC1=C(CC(=O)O)c2cc(F)ccc2/C1=C\c1ccc([S+](C)[O-])cc1 (centres unmarked) [sulindac]
- inhibition of premalignant lesions in mammary gland organ culture [8]: effectively inhibit the formation of premalignant lesions
